Experimental findings from patent EP4782431A1 (Suzhou Merna Therapeutics Co. Ltd, priority 2023, dated 2025) are described below.

In data set [1] the test system is HaCaT cells. Description: m6A methylation level of human keratinocytes (EpiQuik m6A RNA methylation quantification kit). Format: cell-based. To be noted: for m6A fold change: 24 hours. The procedure: HaCaT cells were cultured in DMEM culture medium containing 10% fetal bovine serum, 100 U/mL penicillin, and 100 µg/mL streptomycin. Culture dishes were placed in an incubator containing 5% CO2 for culture at 37°C for 24 hours. An equal volume of DMSO was added in control group 1, 50 nM sorafenib, capecitabine, docetaxel, and osimertinib were respectively added in control groups A, B, C, and D, and 400 nM test compounds or nicotinamide were respectively added in sample groups A1, A2, B1, B2, C1, C2, D1, and D2 after the addition of 50 nM corresponding compounds. The cells were continuously cultured for 24 hours, washed with PBS, and then collected by high-speed centrifugation. Total RNA was extracted using Trizol reagent (Sigma Aldrich), and RNA m6A methylation of a sample was quantitatively detected using an EpiQuik m6A RNA methylation quantification kit. The concentrations of positive control samples for a standard curve were 0.01 ng/µl, 0.02 ng/µl, 0.05 ng/µl, 0.1 ng/µl, 0.2 ng/µl, and 0.5 ng/µl. The absorbance at 450 nm was read using a microplate reader (Tecan GENios). A quantitative calculation formula for m6A is as follows: m6A(ng) = (absorbanceofsamplewell−absorbanceofbackroundwell)/slope of standard curve [formula] m6A(%) = m6A(ng)/RNA amount of sample(ng)*100%. [formula]

The subject of data set [2] is rat models with a hand-foot skin reaction. The data set is described as follows: rat models with a hand-foot skin reaction. The format is in vivo, SD rats. The procedure:
After adaptive feeding for one week, SD rats (with a body weight of approximately 200 g) were randomly divided into groups with balanced body weight, with 12 rats in each group. Modeling drugs (including sorafenib, erlotinib, afatinib, and osimertinib) were respectively dissolved in a solution containing 5% of DMSO, 45% of PEG400, and 50% of H2O, and the modeling drugs were diluted to required concentrations and then administered once daily by gavage at doses shown in Table 3. After administration by gavage for 1 hour, 0.05 g of ointments containing different mass proportions of test compounds were evenly applied to left paws of the rats, a blank matrix ointment was applied to right paws of the rats to serve as a self-control, and no ointment was applied to the rats in a blank control group. After drug application, four limbs were continuously immobilized for 2 hours, then wiped with clean water to remove the residual drugs, removed from immobilization, and restored to free movement. The modeling drugs, the blank matrix ointment, and the ointments containing the test compounds were all administered once daily. After continuous administration for 30 days, the rats were euthanized, and paw plantar skin tissues were collected, fixed in 10% neutral formalin, […]. The ointments for the test compounds were prepared by mixing the compounds, white beeswax, white petrolatum, and light liquid paraffin in specific ratios (weight ratios of 3 ointments were respectively 1:18:58:23, 3:18:57:22, and 10:20:40:30). The blank matrix ointment was prepared by mixing white beeswax, white petrolatum, and light liquid paraffin in a specific ratio (weight ratio of 18:60:22).
Tissue staining: After dewaxing and rehydration, the paw plantar skin tissue sections of the above rats were stained in a hematoxylin solution for several minutes, cleaned, and placed in 1% acid alcohol for soaking until the sections faded to light blue-red. After cleaning with running water for 5 minutes, the sections were stained with eosin for 2-3 minutes, cleaned to remove excess dyes, dehydrated, then permeabilized by adding xylene for several minutes, and sealed and fixed with a neutral resin. The stratum corneum was observed under an optical microscope, and the thickness of the epidermal stratum corneum was measured using Dmetrix software.
Immunohistochemical staining: After dewaxing and hydration, the paw plantar skin tissue sections of the above rats were incubated with 3% H2O2 at room temperature for 30 minutes and blocked with 10% goat serum for 30 minutes after antigen retrieval. A KRT1 antibody (Abcam, ab93652) and a Loricrin antibody (Abcam, ab183646) were added dropwise, the sections were incubated overnight at 4°C, and an HRP secondary antibody (ZSGB-BIO, PV-6001) and a DAB kit (ZSG-BIO, ZLI9017) were added for color development. The sections were re-stained with hematoxylin, cleaned, and sealed and fixed with a neutral resin, and the expression amounts of KRT1 and Loricrin were observed under an optical microscope.
An incidence rate calculation method involves a proportion of animals in each group meeting the above criteria for determining successful modeling, that is, incidence rate = (number of successfully modeled rats/total number of rats in the group)*100%. […]

The mark [3] stands for this setting: 400 nM after 50 nM capecitabine, relative to control group 1.
[4] abbreviates: 400 nM after 50 nM docetaxel, relative to control group 1.
Where [5] appears, read: 400 nM after 50 nM osimertinib, relative to control group 1.
The mark [6] stands for this setting: 400 nM after 50 nM sorafenib, relative to control group 1.
The mark [7] stands for this setting: 50 nM drug alone, relative to control group 1 (DMSO).
[8] abbreviates: modeling drug alone by gavage once daily 30 days (Sorafenib 100, Erlotinib 70, Afatinib 50, Osimertinib 60 mg/kg), no test compound.

As to `NC(=O)[C@H]1CCCc2c1[nH]c1ccc(Cl)cc21` [Compound of formula (I), (S)-6-chloro-2,3,4,9-tetrahydro-1H-carbazole-carboxamide], in data set [1] (400 nM), the “abnormal increase in the RNA m6A level of human keratinocytes caused by chemotherapeutic drugs and multikinase inhibitors” value is “effectively inhibit”. Moreover, the m6A fold change is 1.1 fold in data set [1] (setting [3]), 1.0 fold in data set [1] (setting [4]), 1.2 fold in data set [1] (setting [5]) and 1.4 fold in data set [1] (setting [6]). In addition, the “Incidence rate Left paw” value in data set [2] (Afatinib 50 mg/kg model, 1% ointment on left paw, once daily 30 days) is 3/12 (25%); in data set [2] (Afatinib 50 mg/kg model, 3% ointment on left paw, once daily 30 days) it was 2/12 (17%); in data set [2] (Afatinib 50 mg/kg model, 10% ointment on left paw, once daily 30 days) it was 0/12 (0%); in data set [2] (Erlotinib 70 mg/kg model, 1% ointment on left paw, once daily 30 days), 3/12 (25%); in data set [2] (Erlotinib 70 mg/kg model, 3% ointment on left paw, once daily 30 days), 2/12 (17%); in data set [2] (Erlotinib 70 mg/kg model, 10% ointment on left paw, once daily 30 days), 1/12 (8%). The “Incidence rate Left paw” value in data set [2] (Osimertinib 60 mg/kg model, 1% ointment on left paw, once daily 30 days) is on record as 2/12 (17%); in data set [2] (Osimertinib 60 mg/kg model, 3% ointment on left paw, once daily 30 days), 2/12 (17%); in data set [2] (Osimertinib 60 mg/kg model, 10% ointment on left paw, once daily 30 days), 0/12 (0%); in data set [2] (Sorafenib 100 mg/kg model, 1% ointment on left paw, once daily 30 days) it was 2/12 (17%); in data set [2] (Sorafenib 100 mg/kg model, 3% ointment on left paw, once daily 30 days) it was 2/12 (17%); in data set [2] (Sorafenib 100 mg/kg model, 10% ointment on left paw, once daily 30 days), 0/12 (0%). The “Incidence rate Right paw” value in data set [2] (Afatinib 50 mg/kg model, right paw with blank matrix ointment, 1% ointment on left paw, 30 days) was 9/12 (75%); in data set [2] (Afatinib 50 mg/kg model, right paw with blank matrix ointment, 3% ointment on left paw, 30 days), 4/12 (33%); in data set [2] (Afatinib 50 mg/kg model, right paw with blank matrix ointment, 10% ointment on left paw, 30 days) it was 3/12 (25%); in data set [2] (Erlotinib 70 mg/kg model, right paw with blank matrix ointment, 1% ointment on left paw, 30 days) it was 10/12 (83%); in data set [2] (Erlotinib 70 mg/kg model, right paw with blank matrix ointment, 3% ointment on left paw, 30 days), 5/12 (42%); in data set [2] (Erlotinib 70 mg/kg model, right paw with blank matrix ointment, 10% ointment on left paw, 30 days), 4/12 (33%). Also, the “Incidence rate Right paw” value in data set [2] (Osimertinib 60 mg/kg model, right paw with blank matrix ointment, 1% ointment on left paw, 30 days) is listed as 8/12 (67%); in data set [2] (Osimertinib 60 mg/kg model, right paw with blank matrix ointment, 3% ointment on left paw, 30 days), 4/12 (33%); in data set [2] (Osimertinib 60 mg/kg model, right paw with blank matrix ointment, 10% ointment on left paw, 30 days), 3/12 (25%); in data set [2] (Sorafenib 100 mg/kg model, right paw with blank matrix ointment, 1% ointment on left paw, 30 days), 9/12 (75%); in data set [2] (Sorafenib 100 mg/kg model, right paw with blank matrix ointment, 3% ointment on left paw, 30 days), 4/12 (33%); in data set [2] (Sorafenib 100 mg/kg model, right paw with blank matrix ointment, 10% ointment on left paw, 30 days), 4/12 (33%). For the same compound, the “stratum corneum thickness of the paw plantar skin of the modeled rats” value in data set [2] (ointment on paw of modeled rats) is “effectively decrease”. For the same compound, the “incidence rate of hand-foot skin reaction at a drug application site” value in data set [2] (ointment, mass content of 1%) was “significantly decrease”. In addition, in data set [2] (ointment, mass content of 3% and 10%), the “incidence rate of hand-foot skin reaction in all paws of the rats” value is “significantly decrease”. Also, the “formation of blisters in the epidermis and subepidermis caused by the modeling drugs” value in data set [2] (pathological scoring (FIG. 10)) and in data set [2] (tissue staining (FIG. 9)) was “effectively alleviate” in each case. Moreover, the “inflammatory cell infiltration in the dermis” value in data set [2] (pathological scoring (FIG. 10)) and in data set [2] (tissue staining (FIG. 9)) was “inhibit” throughout. For the same compound, the skin congestion phenomenon entry in data set [2] (pathological scoring (FIG. 10)) and in data set [2] (tissue staining (FIG. 9)) was “significantly alleviate” throughout.
For the compound `NC(=O)c1cccnc1` [Nicotinamide, nicotinamide], the m6A fold change in data set [1] (setting [3]) is listed as 4.5 fold; in data set [1] (setting [4]) it was 5.4 fold; in data set [1] (setting [5]), 5.0 fold; in data set [1] (setting [6]), 4.7 fold.
The compound `C=CC(=O)Nc1cc(Nc2nccc(-c3cn(C)c4ccccc34)n2)c(OC)cc1N(C)CCN(C)C` [Osimertinib, osimertinib] displayed a m6A fold change in data set [1] (setting [7]) of 4.8 fold. For the same compound, in data set [2] (rat, in vivo), the “KRT1 and Loricrin in tissues” value is on record as “significantly increased”; the “stratum corneum thickness of the paw plantar skin” value was “significantly higher than that of normal rats”.
`CNC(=O)c1cc(Oc2ccc(NC(=O)Nc3ccc(Cl)c(C(F)(F)F)c3)cc2)ccn1` [Sorafenib, sorafenib] gave a m6A fold change in data set [1] (setting [7]) of 4.5 fold. Also, in data set [2] (SD rats, once daily by gavage: sorafenib 100, erlotinib 70, afatinib 50, osimertinib 60 mg/kg), the “successful modeling rates for the hand-foot skin reaction” value came to 75%. Moreover, the “KRT1 and Loricrin in tissues” value in data set [2] (immunohistochemical staining, successfully modeled rats, modeling drug alone) is given as “significantly increased”. Also, in data set [2] (setting [8]), the “Incidence rate Left paw” value is 9/12 (75%) and the “Incidence rate Right paw” value was 9/12 (75%). Moreover, in data set [2] (successfully modeled rats, modeling drug alone, vs normal rats), the “stratum corneum thickness of the paw plantar skin” value is listed as “significantly higher than that of normal rats”.
